The results in this text go back to patent US12006332B2, “Aminopyrimidine derivatives as phosphatidylinositol phosphate kinase inhibitors” (HiberCell, Inc., priority 2019, dated 2024).

The target in one assay is T1, PIP4K2 B (Homo sapiens, UniProt P78356).
T1 construct: made in house; host or cells: E. coli
T1 sequence (P78356 1-416): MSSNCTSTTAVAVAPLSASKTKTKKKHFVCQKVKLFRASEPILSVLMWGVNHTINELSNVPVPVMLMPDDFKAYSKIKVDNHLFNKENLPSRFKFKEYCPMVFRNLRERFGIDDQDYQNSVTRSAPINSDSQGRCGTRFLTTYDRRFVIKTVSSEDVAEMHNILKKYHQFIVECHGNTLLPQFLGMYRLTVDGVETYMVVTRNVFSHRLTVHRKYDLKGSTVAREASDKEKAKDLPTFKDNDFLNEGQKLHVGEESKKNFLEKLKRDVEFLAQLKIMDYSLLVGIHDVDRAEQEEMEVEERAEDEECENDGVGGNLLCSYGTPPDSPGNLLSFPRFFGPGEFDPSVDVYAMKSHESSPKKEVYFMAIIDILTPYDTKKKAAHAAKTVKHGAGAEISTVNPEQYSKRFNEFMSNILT
Put plainly: Kinase Assay-PIP4K2 B (Transcreener FI). Format: biochemical. The source says: GST tagged PIP4KtypeIIA and B enzymes were overexpressed in E. Coli and purified to >80% homogeneity. Phosphatidyl inositol-5-phosphate (PI5P, Cat. #850152, Avanti Polar Lipids Inc.) was used as the lipid substrate and phosphatidyl ethanolamine (DOPE 18:1, Cat. #850725, Avanti Polar Lipids Inc.) was used as the carrier lipid for assays. Ultrapure ATP and GTP was purchased from Bellbrooke Labs. ADP Glo reagents were obtained from Promega. Transcreener FI reagent was obtained from Bellbrooke labs.
• 1. HEPES buffer mix: 200 mM HEPES pH 7.4, 50 mM MgCl2, 0.05% v/v triton X 100 • 2. HNE buffer: 20 mM HEPES, pH 7.4, 100 mM NaCl, 0.5 mM EGTA • 3. H:E buffer: 30 mM HEPES, pH 7.4, 1 mM EGTA
GST-tagged PIP4KtypeIIB (3.4 μl, 2.77 mg/mL) was diluted to 5 mL using HNE buffer to yield 5× enzyme stock (25 nM)
Lipid Preparation: In a 10 mL pyrex glass vial, […] were suspended in 2.5 mL of HEPES buffer mix and 2.5 mL of H:E buffer. The contents were mixed and sonicated for 3 min to yield a translucent lipid stock.
Compound Preparation: Compounds were stored as 5 mM stocks in neat DMSO as room temperature in glass vials. 5 mM stocks were diluted to 2 mM and then serially diluted (3×) in neat DMSO in 96 well polypropylene plates. From the serially diluted stocks, 3 μL was delivered into 250 μL of 25% DMSO (in water) to generate 5× compound stocks. Typically, the highest compound conc. was 24 μM.
The assay volume was kept at 25 μL. To each well of the reaction plate, 10 μL of lipid stock (1:1 ratio PI5P:DOPE) was delivered. This was followed by the addition of 5 μL of compound in 25% DMSO. Then, to each well, 5 μL of 25 nM (5×) typeIIB enzyme was delivered. The contents were mixed well and incubated for 1 h at 27° C. After 1 h, reaction was initiated by adding 5 μL of 500 μM GTP and the contents were mixed well with a multi-channel pipetteman. The final concentration of the reagents are as follows: 50 mM HEPES, pH 7.3, 10 mM MgCl2, 20 mM NaCl, 0.01% v/v triton-X100, 5% DMSO, 100 μM GTP, 80 μM (2 μg) PI5P, 2 μg DOPE, and 5 nM PIP4KIIB Typically, the highest conc. of compounds was 4.8 μM and the lowest conc. was 0.
After 2 h, the reaction was quenched by adding 25 μL of transcreener FI reagent. The contents were incubated at rt for 1 h and the Fluorescence (Ex: 584 Em: 623) was read using Molecular Devices Paradigm plate reader. […] The blanks were averaged and subtracted from all other wells. Using a calibration curve, RFU was converted to μM GDP (product). IC50 was calculated by plotting the residual activity (expressed as % No inhibitor control) vs. log [Inh. conc.].

Another assay concerns MOLM-16. Put plainly: MOLM-16 EC50 assay. Format: cell-based. The following applies: MOLM16.
For the next assay, the target named is T2, PIP4K2A (Homo sapiens, UniProt P48426).
T2 construct: made in house; host or cells: E. coli
T2 sequence (P48426 1-406): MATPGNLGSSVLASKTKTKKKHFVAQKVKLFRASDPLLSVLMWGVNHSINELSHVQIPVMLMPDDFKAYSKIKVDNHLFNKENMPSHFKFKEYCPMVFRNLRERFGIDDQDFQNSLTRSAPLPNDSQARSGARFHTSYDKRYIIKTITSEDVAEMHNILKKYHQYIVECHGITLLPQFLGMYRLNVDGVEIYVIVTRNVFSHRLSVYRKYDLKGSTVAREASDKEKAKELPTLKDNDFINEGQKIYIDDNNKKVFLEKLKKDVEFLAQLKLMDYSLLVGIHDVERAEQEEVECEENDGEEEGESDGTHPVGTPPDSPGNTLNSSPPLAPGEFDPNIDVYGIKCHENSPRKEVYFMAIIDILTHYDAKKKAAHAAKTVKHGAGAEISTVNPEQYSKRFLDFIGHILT
Put plainly: Kinase Assay-PIP4K2 A (ADP-Glo). The format is biochemical. The protocol: Dilution series of the compounds were prepared in DMSO at 100 times the final assay concentration (n1=n0/3 in 10 points). The compounds were further diluted to three times the assay concentration in assay buffer (20 mM MOPS pH 7.2, 25 mM magnesium chloride, 0.005% Tween 20). 6 μL of the diluted compounds were added to a 384 well assay plate followed by 9 μL of a mix consisting of 4 nM PIP4K2A (full length protein, SignalChem) and 100 μM PI(5)P diC8 (Tebu-Bio). Enzyme and compounds were pre-incubated at room temperature for 15 minutes.
Then 3 μL of a solution containing 60 μM ATP (Promega) in assay buffer was added to the wells containing compound and enzyme and mixing was performed by pipetting several times. The reaction was incubated at room temperature for 1 h. Then 18 μL of ADP-Glo™ Reagent (Promega) was added to stop the kinase reaction and deplete the unconsumed ATP, mixing was performed by pipetting several times. The plate was incubated at room temperature for 40 minutes before addition of 36 μL of Kinase Detection Reagent (Promega) to convert ADP to ATP and introduce luciferase and luciferin to detect ATP. The reaction was incubated at room temperature for 40 minutes before the luminescence was measured in a in a Victor 3V 1420 multilabel counter (Perkin Elmer).
Percent inhibition of the compounds as compared to dimethyl sulfoxide treated control samples was calculated. Compound concentration versus percent inhibition were fitted to generate IC50 values. […]
(ADP-Glo turns the ADP formed in a reaction into a luminescent signal.)

As a reminder, the IC50 is the concentration needed to halve the response being measured. The term EC50 denotes the midpoint of the concentration-response curve. On to `COc1nc(Nc2cncc(N3CC[C@H](N(C)C)C3)c2)ncc1-c1ccc(-c2nnccc2C)cc1` [Compound 37, N-{5-[(3S)-3-(dimethylamino)pyrrolidin-1-yl]pyridin-3-yl}-4-methoxy-5-[4-(4-methylpyridazin-3-yl)phenyl]pyrimidin-2-amine], for which the IC50 against PIP4K2 B and at PIP4K2A was 10 to 100 nM throughout. Also, the concentration for a half-maximal effect (EC50) with MOLM-16 was 10 to 100 nM.
In the case of `COc1nc(Nc2cncc(N3CC[C@@H](N(C)C)C3)c2)ncc1-c1ccc(-c2nnccc2C)cc1` [Compound 34, N-{5-[(3R)-3-(dimethylamino)pyrrolidin-1-yl]pyridin-3-yl}-4-methoxy-5-[4-(4-methylpyridazin-3-yl)phenyl]pyrimidin-2-amine], the concentration for half-maximal inhibition (IC50) on PIP4K2 B and against PIP4K2A was 10 to 100 nM in each case. Besides, in the assay on MOLM-16, the half-maximal effective concentration (EC50) was 10 to 100 nM.
Regarding `COc1nc(Nc2cncc(N3CC[C@@H](N(C)C)C3)c2)ncc1-c1ccc(N2CCCC2=O)cc1` [Compound 35, 1-{4-[2-({5-[(3R)-3-(dimethylamino)pyrrolidin-1-yl]pyridin-3-yl}amino)-4-methoxypyrimidin-5-yl]phenyl}pyrrolidin-2-one], the 50% inhibitory concentration (IC50) against PIP4K2 B and on PIP4K2A was 100 to 1000 nM in each case. The half-maximal effective concentration (EC50) with MOLM-16 was in the range of 10 to 100 nM.
With `COc1nc(Nc2cncc(OCCN3CCC(F)(F)C3)c2)ncc1-c1ccc(N2CCCC2=O)cc1` [Compound 41, 1-{4-[2-({5-[2-(3,3-difluoropyrrolidin-1-yl)ethoxy]pyridin-3-yl}amino)-4-methoxypyrimidin-5-yl]phenyl}pyrrolidin-2-one], the IC50 against PIP4K2 B and against PIP4K2A was 10 to 100 nM in each case. The same molecule had an EC50 in the assay on MOLM-16 of 10 to 100 nM.
Regarding `COc1nc(Nc2cnc3c(c2)N(C(=O)CN(C)C)CCO3)ncc1-c1ccc(N2CCCC2=O)cc1` [Compound 19, 1-{4-[2-({1-[2-(dimethylamino)acetyl]-1H,2H,3H-pyrido[2,3-b][1,4]oxazin-7-yl}amino)-4-methoxypyrimidin-5-yl]phenyl}pyrrolidin-2-one], the IC50 against PIP4K2 B and at PIP4K2A was 10 to 100 nM in each case. In the assay with MOLM-16, this molecule yielded a 50% effective concentration (EC50) of 10 to 100 nM.
For `CN(c1nc(Nc2cnc3c(c2)N2C(=O)CC[C@H]2CO3)ncc1-c1ccc(N2CCCC2=O)cc1)[C@@H]1CCOC1` [Compound 7, (6S)-12-[(4-{methyl[(3R)-oxolan-3-yl]amino}-5-[4-(2-oxopyrrolidin-1-yl)phenyl]pyrimidin-2-yl)amino]-8-oxa-2,10-diazatricyclo[7.4.0.0^2,6]trideca-1(13),9,11-trien-3-one], the half-maximal inhibitory concentration (IC50) at PIP4K2 B and on PIP4K2A was 1 to 10 nM each time. In the assay on MOLM-16, the EC50 is above 1000 nM.
`COc1nc(Nc2cncc(N3CCC(N(C)C)CC3)c2)ncc1-c1ccc(-c2nnccc2C)cc1` [Compound 17, N-{5-[4-(dimethylamino)piperidin-1-yl]pyridin-3-yl}-4-methoxy-5-[4-(4-methylpyridazin-3-yl)phenyl]pyrimidin-2-amine]: the half-maximal inhibitory concentration (IC50) against PIP4K2 B and against PIP4K2A was 10 to 100 nM throughout.
With `CN(c1nc(Nc2cnc3c(c2)N2C(=O)CC[C@H]2CO3)ncc1-c1ccc(N2CCCC2=O)cc1)[C@H]1C[C@H](O)C1` [Compound 4, (6S)-12-[(4-{methyl[(1r,3r)-3-hydroxycyclobutyl]amino}-5-[4-(2-oxopyrrolidin-1-yl)phenyl]pyrimidin-2-yl)amino]-8-oxa-2,10-diazatricyclo[7.4.0.0^2,6]trideca-1(13),9,11-trien-3-one], the 50% inhibitory concentration (IC50) at PIP4K2 B and on PIP4K2A was 1 to 10 nM each time. For the same molecule, the EC50 in the assay on MOLM-16 was above 1000 nM.
As to `CCN(CC)CCOC(=O)N1CCOc2ncc(Nc3ncc(-c4ccc(N5C(=O)CC[C@H]5C)cc4)cn3)cc21` [Compound 22, 2-(diethylamino)ethyl 7-[(5-{4-[(2R)-2-methyl-5-oxopyrrolidin-1-yl]phenyl}pyrimidin-2-yl)amino]-1H,2H,3H-pyrido[2,3-b][1,4]oxazine-1-carboxylate], the half-maximal inhibitory concentration (IC50) on PIP4K2 B and against PIP4K2A was 10 to 100 nM each time.
As to `CCN(CC)CCOC(=O)N1CCOc2ncc(Nc3ncc(-c4ccc(N5CCCC5=O)cc4)cn3)cc21` [Compound 23, 2-(diethylamino)ethyl 7-({5-[4-(2-oxopyrrolidin-1-yl)phenyl]pyrimidin-2-yl}amino)-1H,2H,3H-pyrido[2,3-b][1,4]oxazine-1-carboxylate], the IC50 against PIP4K2 B and against PIP4K2A was 10 to 100 nM each time.
For the molecule `CCN(CC)CCN(C)C(=O)N1CCOc2ncc(Nc3ncc(-c4ccc(N5C(=O)CC[C@H]5C)cc4)c(OC)n3)cc21` [Compound 24, N-[2-(diethylamino)ethyl]-7-[(4-methoxy-5-{4-[(2R)-2-methyl-5-oxopyrrolidin-1-yl]phenyl}pyrimidin-2-yl)amino]-N-methyl-1H,2H,3H-pyrido[2,3-b][1,4]oxazine-1-carboxamide], the IC50 against PIP4K2 B fell in the range of 10 to 100 nM; against PIP4K2A it was 100 to 1000 nM.
For `CCN(CC)CCN(C)C(=O)N1CCOc2ncc(Nc3ncc(-c4ccc(N5C(=O)CC[C@H]5C)cc4)cn3)cc21` [Compound 25, N-[2-(diethylamino)ethyl]-N-methyl-7-[(5-{4-[(2R)-2-methyl-5-oxopyrrolidin-1-yl]phenyl}pyrimidin-2-yl)amino]-1H,2H,3H-pyrido[2,3-b][1,4]oxazine-1-carboxamide] the same measures were 100 to 1000 nM and 100 to 1000 nM.
The matching figures for `CP(C)(=O)c1ccc(-c2ccc(Nc3cnc4c(c3)N3C(=O)CC[C@H]3CO4)nc2)cc1` [Compound 27, (6S)-12-({5-[4-(dimethylphosphoryl)phenyl]pyridin-2-yl}amino)-8-oxa-2,10-diazatricyclo[7.4.0.0^2,6]trideca-1(9),10,12-trien-3-one]: above 1000 nM and above 1000 nM.
